This is an account of results in patent US9776992B2, “1-oxo-1,2-dihydroisoquinolin-7-yl-(5-substituted-thiophen-2-yl)-sulfonamide compounds, formulations containing those compounds, and their use as AICARFT inhibitors in the treatment of cancers” (Eli Lilly and Company, priority 2014, dated 2017).

What is called pIC50 is the negative decadic logarithm of the IC50, by convention in mol/L.

Each structure is given as a SMILES string. pIC50: −log10 of the molar value.

The subject of assay [1] is AICARFT. Description: Pharmacodynamic response in beagle dogs (plasma AICAr). The assay is classed as in vivo, beagle dog. Conditions: for Mean Plasma AICAr: beagle dogs, orally, time of collection post dose 8; for in vivo inhibition of AICARFT (in words): dogs, summary of Table 20. As to the method:
The in vivo effects of AICARFT inhibition on the circulating concentration of AICAr is determined by liquid chromatography-mass spectrometry (LC-MS). Standard curves containing AICAr at concentrations of 1 ng/mL-2000 ng/mL are prepared in 40 mM ammonium acetate, pH 4. Plasma samples (75 μL) or standards (75 μL) are combined with 300 μL of an internal standard solution containing 13C5-AICAr (20 ng/mL) and formic acid (1%) in ACN. The samples are vortex mixed for 5 minutes and passed through a Phenomenex Phree 96-well phospholipid removal SPE plate. The eluents are collected in a 96-well plate and dried under heated nitrogen at 50° C. Each sample is reconstituted in 50 μL of 40 mM ammonium acetate, pH 4. The plates are sealed and vortexed for 5 minutes prior to analysis. The LC-MS method utilized a Shimadzu Prominence 20A HPLC system connected to an AB Sciex 5500™ or an AB Sciex 6500™ triple quadrupole mass spectrometer running Analyst® software. Extracted samples are separated using two Thermo Hypercarb™ Javelin guard columns (2.1×20 mm, 5 μm) connected in series with an injection volume of 15 μL and a flow rate of 1 mL/minute. Mobile phase A is a 95:5 mixture of 50 mM ammonium formate, pH 4 and ACN. Mobile phase B is a 70:30 mixture of ACN and MeOH spiked with 0.3% formic acid and 2% concentrated ammonium hydroxide solution (v/v). For mouse plasma samples the following gradient is used: 0 minutes, 0% B; 0.25 minutes, 0% B; 2.00 minutes, 25% B; 2.01 minutes, 95% B; 3.50 minutes, 95% B; 3.51 minutes, 0% B; 4.50 minutes, stop. For dog plasma samples the following gradient is used to remove endogenous interferences: 0 minutes, 0% B; 0.25 minutes, 0% B; 5.99 minutes, 20% B; 6.00 minutes, 95% B; 8.00 minutes, 95% B; 8.01 minutes, 0% B; 10.00 minutes, stop. The mass spectrometer is operated in positive ion TurboIonSpray® multiple reaction monitoring mode with a source temperature of 700° C. The precursor and fragment ions for each analyte are: AICAr (259→127) and 13C5-AICAr (264→127). Calibration curves are constructed by plotting analyte concentrations vs. analyte/internal standard peak area ratios and performing a linear fit of the data using a 1/concentration weighting with AB Sciex MultiQuant™ 2.1 software.
Beagle dogs, non-human primates and human are low serum folate species, whereas rodents are high serum folate (C P Leamon et al. (2008) JPET 327:918-925). The pharmacodynamics response in dogs treated with an AICARFT inhibitor will be more representative of the expected pharmacodynamics response in patients treated with an AICARFT inhibitor.
Animals are returned to the colony for re-use after completion of the experiment.

The test system of assay [2] is large cell lung cancer NCI-H460. Description: In vitro proliferation assay, NCI-H460. The assay is classed as cell-based. Conditions: Homo sapiens; NCI-H460, standard media conditions. On the procedure: (§1) Cells are grown using the cell banks recommended culture conditions on the date of sample acquisition. Prepare complete medium adding appropriate horse serum (ex. Invitrogen, Cat. No. 16050130) or FBS (ex. Invitrogen, Cat. No. 10099-141 or Hyclone Cat. No. CH30160.03) and additives.
(§2) For attached cell lines, remove and discard culture medium using a vacuum pump. […] Add 3.0 mL of Trypsin-EDTA solution to flask and observe cells under an inverted microscope until cell layer is dispersed. Add 8.0 mL of complete growth medium and aspirate cells by gently pipetting.
(§3) For suspension cell lines, transfer the cell suspension to a centrifuge tube and centrifuge at 800-1000 rpm for 3-5 minutes. Discard the supernatant using a vacuum pump. Add the appropriate volume of complete medium. Suspend the cell pellet by gently pipetting. Count the cell numbers and adjust cells to the appropriate seeding density. […]
(§4) Determine the concentrations to be tested and dilute the compounds to 200×final concentration in low folate media. […] Incubate plates at 37° C. for approximately 2 doubling times as determined for each cell line. […] Paste the clear bottom with white back seal and record luminescence with Flexstation3 (Molecular Devices). The settings should be: Luminescence, integration time 500 ms. […]

Assay [3] concerns colorectal carcinoma HCT-116. Description: In vitro proliferation assay, HCT-116. It counts as cell-based. The note with it: Homo sapiens; HCT-116, standard media conditions. As to the method:
as §1, §2, §3, §4

Assay [4] deals with panel of cell lines. Kind of assay: In vitro proliferation assay, cell line panel (CellTiter-Glo). It counts as cell-based. Conditions: standard media conditions; summary of Table 17. On the procedure:
as §1, §2, §3, §4
On the technique in general: Cellular ATP, detected with luciferase, serves as a proxy for viable cell number.

On to `O=c1[nH]ccc2cc(F)c(NS(=O)(=O)c3ccc(N4C[C@@H](O)[C@@H](F)C4)s3)cc12` (single isomer, unassigned) [Example 33], for which the “Mean Plasma AICAr” value in assay [1] (10 mg/kg QD) was found to be 98 nM; in assay [1] (30 mg/kg QD), 213 nM; in assay [1] (100 mg/kg QD) it was 726 nM; in assay [1] (300 mg/kg QD), 1150 nM. Further, the “in vivo inhibition of AICARFT (in words)” value in assay [1] is listed as “demonstrate in vivo inhibition of AICARFT”.
On to `O=c1[nH]ccc2cc(F)c(NS(=O)(=O)c3ccc(N4CC[C@@H](O)C4)s3)cc12` [Example 1, N-(6-Fluoro-1-oxo-1,2-dihydroisoquinolin-7-yl)-5-[(3R)-3-hydroxypyrrolidin-1-yl]thiophene-2-sulfonamide], for which the pIC50 in assay [2] was 6.21; in assay [3], 5.09. Moreover, the “inhibition of proliferation of cancer cells (in words)” value in assay [4] is “inhibit proliferation of cancer cells”. For the same compound, the “Mean Plasma AICAr” value in assay [1] (10 mg/kg QD) came out at 138 nM; in assay [1] (30 mg/kg QD), 254 nM; in assay [1] (100 mg/kg QD), 652 nM; in assay [1] (300 mg/kg QD), 931 nM. In addition, in assay [1], the “in vivo inhibition of AICARFT (in words)” value is listed as “demonstrate in vivo inhibition of AICARFT”.
Regarding `O=c1[nH]ccc2cc(F)c(NS(=O)(=O)c3ccc(N4C[C@@H](O)C(F)(F)C4)s3)cc12` [Example 41, 5-[(4R)-3,3-difluoro-4-hydroxypyrrolidin-1-yl]-N-(6-fluoro-1-oxo-1,2-dihydroisoquinolin-7-yl)thiophene-2-sulfonamide], the pIC50 is 5.73 in assay [2] and 4.97 in assay [3]. In assay [4], the “inhibition of proliferation of cancer cells (in words)” value is recorded as “inhibit proliferation of cancer cells”. For the same compound, the “Mean Plasma AICAr” value was 158 nM in assay [1] (10 mg/kg QD), 362 nM in assay [1] (30 mg/kg QD), 1534 nM in assay [1] (100 mg/kg QD) and 1373 nM in assay [1] (300 mg/kg QD). The “in vivo inhibition of AICARFT (in words)” value in assay [1] is on record as “demonstrate in vivo inhibition of AICARFT”.
